{"source": "patent US20190247376A1", "about": "“NICOTINIC ACETYLCHOLINE RECEPTOR AGONIST ATTENUATES ILC2-DEPENDENT AIRWAY HYPERREACTIVITY” (University of Southern California, priority 2016, published 2019)", "key": {"α7 subtype of nAChR": {"molecular_target": "α7 subtype of nAChR (Homo sapiens, UniProt P36544)", "sequence (P36544 23-502)": "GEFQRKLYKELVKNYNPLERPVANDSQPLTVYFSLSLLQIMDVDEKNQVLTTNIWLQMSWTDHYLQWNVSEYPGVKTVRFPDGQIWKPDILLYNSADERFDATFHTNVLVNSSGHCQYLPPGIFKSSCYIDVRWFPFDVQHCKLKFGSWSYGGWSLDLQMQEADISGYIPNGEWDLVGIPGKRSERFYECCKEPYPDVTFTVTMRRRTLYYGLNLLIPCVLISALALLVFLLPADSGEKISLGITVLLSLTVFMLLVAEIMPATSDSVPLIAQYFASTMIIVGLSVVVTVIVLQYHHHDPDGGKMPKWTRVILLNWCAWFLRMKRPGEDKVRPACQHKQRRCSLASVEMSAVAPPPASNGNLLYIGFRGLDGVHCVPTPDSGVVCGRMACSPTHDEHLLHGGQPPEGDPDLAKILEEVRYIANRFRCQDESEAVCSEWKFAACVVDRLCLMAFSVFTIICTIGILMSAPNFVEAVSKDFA", "conditions": "cited from earlier work"}, "lung ILC2s [1]": {"tested_on": "lung ILC2s", "assay": "Gene expression analysis of ILC2s with NanoString nCounter technology", "format": "cell-based, mouse", "conditions": "ILC2s from rm-IL-33 challenged mice with or without agonist", "from_the_text": "FIGS. 5A-5F: Cholinergic signal attenuates ILC2 proliferation and GATA3 expression. (FIG. 5A) Mean fluorescence intensity of Ki67 and percentage of Ki67+ cells in isolated lung ILC2s, stimulated with IL-33 in the absence and presence of α7nAChR. (FIG. 5B) Mean fluorescence intensity of GATA3 in isolated lung ILC2s, stimulated with IL-33 in the absence and presence of α7nAChR. One representative experiment of two is shown (n=5; Student's t test *, p<0.05; **, p<0.01; ***p<0.001). […] FACS-purified ILC2s from WT mice challenged with rm-IL-33 with or without α7nAChR agonist as described in FIG. 3A were quantified by NanoString nCounter technology. Data range from −1 to +1 for the most reduced and most increased gene expression, respectively. (FIG. 5D) Expression of NF-κB p65 in isolated lung ILC2s from mice challenged with IL-33 with (dotted line) or without (thick line) α7nAChR agonist. The level of isotype-matched stain control is shown as a gray-filled histogram. (FIG. 5E) Expression of phosphorylated IKKα/β (Ser176/180) in isolated lung ILC2s stimulated with IL-33, with (dotted line) or without (thick line) α7nAChR agonist for 24 hours. The level of isotype-matched stain control is shown as a gray-filled histogram. (FIG. 5F) Mean fluorescence intensity of phosphorylated IKKα/β with or without α7nAChR agonist.\nNext, to investigate the molecular mechanism of α7nAChR agonist-mediated anti-inflammatory effects, Applicants analyzed the gene expression profile of ILC2s with or without α7nAChR agonist treatment by NanoString technology as described in the methods. […] Applicants further confirmed by flow cytometry that α7nAChR agonist reduced NF-κB p65 expression in ILC2s (FIG. 5D). To better establish the underlying mechanisms, Applicants explored the signaling pathway upstream of NF-κB by measuring the activated form of IKKα/β, which is phosphorylated on serine residues 176 and 180. Consistent with our previous results shown in FIG. 5D, α7nAChR agonist reduced phosphorylated IKKα/β expression in ILC2s (FIGS. 5E-5F). NF-κB and STAT-6 are both critical for GATA-3 transcription. The inhibition of GATA-3 expression results in a down-regulation of IL-5, IL-9 and IL-13 secretion from ILC2s.\nThe difference in the abundance of scripts between ILC2s purified from rm-IL33 administered mice with or without α7nAChR agonist were analyzed with NanoString nCounter technology. Heat plots were generated with R statistical software."}, "lung ILC2s [2]": {"tested_on": "lung ILC2s", "assay": "In vitro stimulation of murine lung ILC2s, IL-5 and IL-13 by ELISA, viability by 7-AAD", "format": "cell-based, mouse", "description": "FIGS. 2A-2C: α7nAChR agonist suppresses IL-5 and IL-13 production from ILC2s in vitro. BALB/cByJ mice were intranasally challenged with recombinant mouse IL-33 on days 1-3. On day 4 lung ILC2s were isolated and re-stimulated with rIL-33, rIL-2 and rIL-7 with or without α7nAChR agonist (2.5, 10 and 50 μg mL^−1) for 24 hours (FIG. 2A) or 48 hours (FIG. 2B). The levels of IL-5 and IL-13 were measured by ELISA. The viability of cultured ILC2s were assessed by staining with 7-AAD. (FIG. 2C) BALB/cByJ mice were intranasally challenged with recombinant mouse IL-33 on days 1-3, with or without α7nAChR agonist administration. On day 4 lung ILC2s were isolated and the number of IL-5^+ and IL-13^+ cells per 40×10^4 ILC2s were quantified. Values are expressed as the mean±SEM of five experiments (n=5; Student's t test *, p<0.05; **p<0.01).\nFIG. 10: α7nAChR agonist suppresses cytokine production in ILC2s. Lung ILC2s were sorted from naïve BALB/cByJ mice and cultured with rm-IL-25 (10 ng mL−1) in the presence or absence of α7nAChR (10 μg mL−1) agonist for 24 hours. The levels of IL-5 and IL-13 were measured by ELISA. Data are representative of at least two independent experiments and are presented as means±SEM (n=4; Student's t test *, p<0.05).\nNicotine is known as a major constituent of cigarette smoke, which causes impairment of lung function and exacerbation of asthma. […] To address this question quantitatively, pulmonary ILC2s were isolated and cultured with increasing doses (2.5, 10 and 50 μg mL^−1) of α7nAChR agonist in the presence of rm-IL-33, rm-IL-2 and rm-IL-7. […] To verify that the actions of the agonist were not due to a reduction in the number of ILC2s, Applicants administered IL-33 to mice in vivo with or without agonist treatment, and then quantified the number of IL-5^+ and IL-13^+ ILC2s within a determined number of ILC2s (FIG. 2C). […]\nMurine ILC2s were isolated from BALB/cByJ mice to >95% purity using the FACSARIA III cell sorter. […] Levels of cytokines were measured by ELISA (eBioscience), according to the manufacturer's instructions."}}, "data": [{"smiles": "COc1ccc(/C=C2\\CCCN=C2c2cccnc2)c(OC)c1", "note": "[GTS-21, 3-[(3E)-3-[(2,4-dimethoxyphenyl)methylidene]-5,6-dihydro-4H-pyridin-2-yl]pyridine]", "values": [{"measurement": "binding to the α7 subtype", "setting": "α7 subtype of nAChR", "result": "binds"}, {"measurement": "RelA expression", "setting": "lung ILC2s [1]", "result": "unaffected"}, {"measurement": "expression at the mRNA level of NF-κB1", "setting": "lung ILC2s [1]", "result": "decrease"}, {"measurement": "expression of GATA-3, STAT-6, NF-κB, IL-5, IL-9 and IL-13 (IL-33/IL-25 signaling pathway genes)", "setting": "lung ILC2s [1]", "result": "inhibited"}, {"measurement": "expression of STAT-5a, STAT-5b, and IL-2 receptors (IL-2/IL-7 signaling panel)", "setting": "lung ILC2s [1]", "result": "relatively unaffected"}, {"measurement": "factors associated with apoptosis (Casp3, Casp8, Bcl-2)", "setting": "lung ILC2s [1]", "result": "did not activate"}, {"measurement": "viability of cultured ILC2s (7-AAD)", "setting": "lung ILC2s [2]; agonist 2.5, 10 and 50 μg mL−1, 24 or 48 hours", "result": "independent of cell viability except at the highest tested dose"}, {"measurement": "IL-25-induced cytokine secretion (IL-5 and IL-13)", "setting": "lung ILC2s [2]; rm-IL-25 10 ng mL−1, agonist 10 μg mL−1, 24 hours", "result": "susceptible to suppression"}, {"measurement": "IL-5 and IL-13 production from ILC2s (ELISA)", "setting": "lung ILC2s [2]; rm-IL-33, rm-IL-2, rm-IL-7, agonist 2.5, 10 and 50 μg mL−1, 24 or 48 hours", "result": "dose-dependent anti-inflammatory effects"}]}]}
